Where a name gives a salt, the structure may show the parent alone. Bridge positions count the residues as written; N and C are the ends. Ends that are not written are not given here.
Experiments:
[1] = tested on: Nicotinic receptor (Human); assay: [3H]-; type: binding; conditions: Human receptor (Non-recombinant)
[2] = tested on: Ca channel (Type L, Phenylalkylamine); assay: [3H]-; type: binding; conditions: Rat cerebral cortex
[3] = tested on: Ca channel (Type L, Benzothiazepine); assay: [3H]-; type: binding; conditions: Rat cerebral cortex
PAF receptor = assay: 1-O-Hexadecyl-[3H]-Platelet Activating Factor; type: binding; conditions: Rabbit platelet
[4] = target: Adenosine A1 receptor (Human) (Homo sapiens, UniProt P30542); assay: [3H]8-Cyclopentyl-1,3-dipropylxanthine; type: binding; conditions: Human recombinant
Sequence of Adenosine A1 receptor (Human) (P30542 whole entry, canonical isoform): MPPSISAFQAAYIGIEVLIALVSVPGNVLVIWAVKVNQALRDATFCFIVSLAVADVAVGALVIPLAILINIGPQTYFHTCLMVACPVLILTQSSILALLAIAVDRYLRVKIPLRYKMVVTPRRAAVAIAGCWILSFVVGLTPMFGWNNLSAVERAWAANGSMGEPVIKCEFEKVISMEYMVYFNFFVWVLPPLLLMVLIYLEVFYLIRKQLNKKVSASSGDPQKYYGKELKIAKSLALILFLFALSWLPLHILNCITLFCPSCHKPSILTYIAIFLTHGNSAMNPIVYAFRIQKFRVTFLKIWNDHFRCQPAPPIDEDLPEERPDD

[5] = target: Dopamine D2 receptor short isoform (Human) (Homo sapiens, UniProt P14416); assay: [3H]-Spiperone binding assay; conditions: Human recombinant
Sequence of Dopamine D2 receptor short isoform (Human) (P14416 1-414 isoform P14416-2): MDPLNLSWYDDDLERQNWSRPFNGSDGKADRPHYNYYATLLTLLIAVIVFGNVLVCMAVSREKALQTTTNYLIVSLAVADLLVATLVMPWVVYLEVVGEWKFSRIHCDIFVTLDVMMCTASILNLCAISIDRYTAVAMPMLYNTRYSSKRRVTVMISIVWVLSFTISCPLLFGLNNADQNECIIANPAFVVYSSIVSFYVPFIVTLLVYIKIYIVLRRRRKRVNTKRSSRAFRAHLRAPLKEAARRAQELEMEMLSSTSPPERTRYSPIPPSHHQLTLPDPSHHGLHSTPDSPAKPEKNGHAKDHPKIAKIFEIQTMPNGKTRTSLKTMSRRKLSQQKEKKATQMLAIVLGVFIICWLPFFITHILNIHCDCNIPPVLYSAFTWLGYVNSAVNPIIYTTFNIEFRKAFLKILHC

[6] = tested on: Glutamate receptor (AMPA); assay: D,L-alpha-[3H]-Amino-3-Hydroxy-Methylisoxazole-4-Propionic Acid; type: binding; conditions: Rat cerebral cortex
IP3 receptor = assay: D-[3H]-Inositol-1,4,5-Triphosphate binding assay; conditions: Rat cerebellum
[7] = target: Glucocorticoid receptor (Human) (Homo sapiens, UniProt P04150); assay: [3H]-Dexamethasone binding assay; conditions: Human recombinant
Sequence of Glucocorticoid receptor (Human) (P04150 whole entry): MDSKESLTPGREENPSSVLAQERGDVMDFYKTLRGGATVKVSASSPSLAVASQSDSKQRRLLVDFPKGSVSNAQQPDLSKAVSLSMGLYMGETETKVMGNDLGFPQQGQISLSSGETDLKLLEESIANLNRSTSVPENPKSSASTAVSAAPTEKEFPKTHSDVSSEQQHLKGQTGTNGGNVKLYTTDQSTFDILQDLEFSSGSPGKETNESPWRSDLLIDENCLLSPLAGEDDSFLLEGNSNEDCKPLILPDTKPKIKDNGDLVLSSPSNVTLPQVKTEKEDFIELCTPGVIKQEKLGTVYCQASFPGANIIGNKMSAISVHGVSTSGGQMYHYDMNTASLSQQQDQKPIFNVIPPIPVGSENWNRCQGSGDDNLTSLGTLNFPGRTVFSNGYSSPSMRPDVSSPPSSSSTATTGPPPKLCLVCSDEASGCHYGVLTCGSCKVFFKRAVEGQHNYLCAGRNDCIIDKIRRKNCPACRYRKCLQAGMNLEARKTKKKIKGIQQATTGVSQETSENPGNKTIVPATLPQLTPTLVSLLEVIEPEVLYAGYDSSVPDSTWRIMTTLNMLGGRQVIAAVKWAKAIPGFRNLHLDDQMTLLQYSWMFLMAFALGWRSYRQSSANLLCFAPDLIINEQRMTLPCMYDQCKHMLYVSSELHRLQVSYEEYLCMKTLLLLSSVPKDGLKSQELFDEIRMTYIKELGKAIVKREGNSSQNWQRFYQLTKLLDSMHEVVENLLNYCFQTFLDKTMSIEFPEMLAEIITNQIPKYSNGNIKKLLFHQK

[8] = tested on: GABA A receptor (Benzodiazepine site); assay: [3H]-Flunitrazepam binding assay; conditions: Rat whole brain
[9] = target: Dopamine transporter (Human) (Homo sapiens, UniProt Q01959); assay: [3H]-WIN35,428 binding assay; conditions: Human recombinant
K Channel KATP = assay: [3H]-Glybenclamide binding assay; conditions: Rat whole brain
[10] = tested on: Imidazoline receptor (Central); assay: [3H]RX 781094; type: binding; conditions: Rat cerebral cortex
[11] = target: Adenosine A3 receptor (Human) (Homo sapiens, UniProt P0DMS8); assay: [125I]-AB-MECA binding assay; conditions: Human recombinant
Sequence of Adenosine A3 receptor (Human) (P0DMS8 whole entry): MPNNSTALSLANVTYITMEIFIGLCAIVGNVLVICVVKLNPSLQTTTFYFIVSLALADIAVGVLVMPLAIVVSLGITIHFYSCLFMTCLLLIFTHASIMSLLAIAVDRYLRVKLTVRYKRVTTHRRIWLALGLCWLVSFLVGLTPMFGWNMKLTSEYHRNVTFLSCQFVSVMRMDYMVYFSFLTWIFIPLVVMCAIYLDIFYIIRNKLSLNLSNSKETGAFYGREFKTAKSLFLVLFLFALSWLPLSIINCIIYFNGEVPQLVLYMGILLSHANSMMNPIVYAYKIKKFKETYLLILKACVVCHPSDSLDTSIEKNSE

[12] = tested on: Glutamate (NMDA polyamine site); assay: [3H]-Ifenprodil binding assay; conditions: Rat cerebral cortex
[13] = target: Serotonin transporter (Human) (Homo sapiens, UniProt P31645); assay: [3H]-Imipramine hydrochloride binding assay; conditions: Human recombinant
Sequence of Serotonin transporter (Human) (P31645 whole entry): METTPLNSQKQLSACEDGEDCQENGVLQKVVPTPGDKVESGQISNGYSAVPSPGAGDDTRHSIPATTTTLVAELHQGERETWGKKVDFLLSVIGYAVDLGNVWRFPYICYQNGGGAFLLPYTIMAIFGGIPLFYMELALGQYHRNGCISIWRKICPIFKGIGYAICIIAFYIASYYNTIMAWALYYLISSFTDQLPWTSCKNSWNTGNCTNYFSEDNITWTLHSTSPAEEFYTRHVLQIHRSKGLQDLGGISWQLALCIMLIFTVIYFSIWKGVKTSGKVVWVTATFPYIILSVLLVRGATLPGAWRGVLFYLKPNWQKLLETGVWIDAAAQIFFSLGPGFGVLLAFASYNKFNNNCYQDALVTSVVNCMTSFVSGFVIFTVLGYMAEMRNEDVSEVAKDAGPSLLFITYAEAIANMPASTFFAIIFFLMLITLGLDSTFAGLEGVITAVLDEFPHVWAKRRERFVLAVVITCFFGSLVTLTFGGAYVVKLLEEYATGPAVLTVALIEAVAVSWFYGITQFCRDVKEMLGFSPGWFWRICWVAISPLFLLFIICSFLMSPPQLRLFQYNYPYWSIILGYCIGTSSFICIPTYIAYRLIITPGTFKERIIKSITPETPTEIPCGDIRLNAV

[14] = tested on: Glutamate receptor (Kainate); assay: [3H]-Kainic Acid binding assay; conditions: Rat whole brain
Monoamine transporter = assay: [3H]-α-Dihydrotetrabenazine binding assay; conditions: Rabbit platelet
[15] = target: Neurokinin NK1 receptor (Human) (Homo sapiens, UniProt P25103); assay: [125I]-Substance P binding assay; conditions: Human recombinant
Sequence of Neurokinin NK1 receptor (Human) (P25103 whole entry): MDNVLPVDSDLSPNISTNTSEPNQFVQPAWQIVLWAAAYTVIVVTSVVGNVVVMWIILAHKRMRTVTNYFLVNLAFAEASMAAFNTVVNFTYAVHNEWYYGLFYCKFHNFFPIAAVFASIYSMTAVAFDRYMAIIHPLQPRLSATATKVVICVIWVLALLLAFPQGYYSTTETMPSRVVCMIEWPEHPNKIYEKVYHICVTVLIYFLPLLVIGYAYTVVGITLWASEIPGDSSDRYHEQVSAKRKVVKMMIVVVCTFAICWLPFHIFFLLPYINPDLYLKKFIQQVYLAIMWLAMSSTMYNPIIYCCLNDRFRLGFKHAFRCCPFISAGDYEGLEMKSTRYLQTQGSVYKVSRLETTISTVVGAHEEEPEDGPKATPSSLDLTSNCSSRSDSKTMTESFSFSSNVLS

[16] = tested on: Glutamate receptor (NMDA agonist site); assay: [3H]-CGP-39653 binding assay; conditions: Rat cerebral cortex
Leukotriene B4 receptor = assay: [3H]-Leukotriene B4 binding assay; conditions: Guinea pig lung
Leukotriene D4 receptor = Leukotriene D4 receptor (Cavia porcellus, UniProt Q2NNR5); assay: [3H]-Leukotriene D4 binding assay; conditions: Guinea pig lung
Sequence of Leukotriene D4 receptor (Q2NNR5 whole entry): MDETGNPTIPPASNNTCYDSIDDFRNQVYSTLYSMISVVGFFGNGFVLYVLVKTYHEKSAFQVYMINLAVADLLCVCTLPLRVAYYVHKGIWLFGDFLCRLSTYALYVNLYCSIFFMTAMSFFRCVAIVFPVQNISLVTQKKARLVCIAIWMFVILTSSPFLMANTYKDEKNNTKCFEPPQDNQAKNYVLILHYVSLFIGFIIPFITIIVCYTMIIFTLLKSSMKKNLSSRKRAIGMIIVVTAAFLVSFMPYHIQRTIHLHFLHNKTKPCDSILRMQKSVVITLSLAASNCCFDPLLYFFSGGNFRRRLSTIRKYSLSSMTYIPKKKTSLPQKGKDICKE

[17] = target: Glutamate receptor (NMDAglycine site) (Rattus norvegicus, UniProt P35439); assay: [3H]-MDL105,519 binding assay; conditions: Rat cerebral cortex
[18] = tested on: GABA A receptor (Agonist site); assay: [3H]-Muscimol binding assay; conditions: Rat cerebellum
[19] = target: Opiate δ receptor (Human) (Homo sapiens, UniProt P41143); assay: [3H]-Naltrindole binding assay; conditions: Human recombinant
Sequence of Opiate δ receptor (Human) (P41143 whole entry): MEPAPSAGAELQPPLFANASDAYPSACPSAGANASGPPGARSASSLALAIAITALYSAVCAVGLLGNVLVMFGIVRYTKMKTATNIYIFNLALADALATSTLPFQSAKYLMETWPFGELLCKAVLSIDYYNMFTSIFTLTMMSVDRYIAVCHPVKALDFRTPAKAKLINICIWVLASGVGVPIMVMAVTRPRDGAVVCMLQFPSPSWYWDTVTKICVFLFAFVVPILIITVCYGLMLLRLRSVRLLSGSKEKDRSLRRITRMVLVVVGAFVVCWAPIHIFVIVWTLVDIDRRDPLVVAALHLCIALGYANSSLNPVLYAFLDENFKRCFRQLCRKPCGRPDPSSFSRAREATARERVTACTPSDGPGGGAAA

[20] = tested on: Ca Channel (Type L, Dihydropyridine); assay: [3H]-PN200-110 binding assay; conditions: Rat cerebral cortex
α1A-Adrenergic receptor = α1A-Adrenergic receptor (Rattus norvegicus, UniProt P43140); assay: [3H]-Prazosin binding assay; conditions: Rat submandibular gland
Sequence of α1A-Adrenergic receptor (P43140 whole entry): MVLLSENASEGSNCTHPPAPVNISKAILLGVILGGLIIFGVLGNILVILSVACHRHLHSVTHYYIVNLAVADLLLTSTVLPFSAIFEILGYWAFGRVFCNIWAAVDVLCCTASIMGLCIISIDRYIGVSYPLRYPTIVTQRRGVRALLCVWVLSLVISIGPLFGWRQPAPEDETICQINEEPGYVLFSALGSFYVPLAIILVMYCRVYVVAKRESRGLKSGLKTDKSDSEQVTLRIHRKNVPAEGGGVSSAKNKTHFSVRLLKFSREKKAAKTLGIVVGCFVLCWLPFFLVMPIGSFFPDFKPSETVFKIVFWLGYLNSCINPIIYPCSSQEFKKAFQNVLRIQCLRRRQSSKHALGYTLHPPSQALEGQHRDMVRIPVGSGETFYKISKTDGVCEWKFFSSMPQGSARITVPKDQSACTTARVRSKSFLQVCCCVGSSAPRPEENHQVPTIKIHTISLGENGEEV

α1B-Adrenergic receptor = α1B-Adrenergic receptor (Rattus norvegicus, UniProt P15823); assay: [3H]-Prazosin binding assay; conditions: Rat liver
Sequence of α1B-Adrenergic receptor (P15823 whole entry): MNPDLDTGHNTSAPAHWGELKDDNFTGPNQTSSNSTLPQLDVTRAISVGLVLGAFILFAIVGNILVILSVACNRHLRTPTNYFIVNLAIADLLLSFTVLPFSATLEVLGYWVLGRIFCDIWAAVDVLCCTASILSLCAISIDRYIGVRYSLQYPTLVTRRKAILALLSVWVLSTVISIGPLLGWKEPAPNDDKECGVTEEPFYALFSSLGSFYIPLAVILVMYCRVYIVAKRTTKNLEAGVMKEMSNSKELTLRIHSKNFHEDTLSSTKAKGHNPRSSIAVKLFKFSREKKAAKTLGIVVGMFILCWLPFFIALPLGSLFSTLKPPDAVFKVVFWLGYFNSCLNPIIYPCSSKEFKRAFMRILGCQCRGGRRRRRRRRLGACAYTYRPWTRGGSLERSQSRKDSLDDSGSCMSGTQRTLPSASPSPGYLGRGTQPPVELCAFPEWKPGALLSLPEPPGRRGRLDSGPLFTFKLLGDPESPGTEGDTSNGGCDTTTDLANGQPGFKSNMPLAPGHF

[21] = target: Prostanoid EP2 receptor (Human) (Homo sapiens, UniProt P43116); assay: [3H]-Prostaglandin E2 binding assay; conditions: Human recombinant
Sequence of Prostanoid EP2 receptor (Human) (P43116 whole entry): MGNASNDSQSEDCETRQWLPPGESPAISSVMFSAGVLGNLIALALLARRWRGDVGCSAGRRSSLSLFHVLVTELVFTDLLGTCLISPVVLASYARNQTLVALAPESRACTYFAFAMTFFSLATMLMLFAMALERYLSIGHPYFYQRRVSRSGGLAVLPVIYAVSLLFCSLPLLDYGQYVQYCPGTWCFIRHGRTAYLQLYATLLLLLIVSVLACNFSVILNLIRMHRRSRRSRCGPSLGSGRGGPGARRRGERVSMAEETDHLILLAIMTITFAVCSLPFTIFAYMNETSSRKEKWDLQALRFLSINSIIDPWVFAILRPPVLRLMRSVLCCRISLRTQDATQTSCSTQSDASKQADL

[22] = tested on: Glycine receptor (Strychnine sensitive); type: binding; conditions: Rat spinal cord
[23] = target: GABA A receptor (Picrotoxin site); assay: [3H]-EBOB binding assay; set-up: species or system Rat
[24] = tested on: Glutamate receptor (NMDA phencycidine site); assay: [3H]-; type: binding; conditions: Rat cerebral cortex
K Channel SkCa = assay: [125I]-Apamin binding assay; conditions: Rat whole brain
[25] = tested on: Bombesin receptor (Non-selective); assay: [125I]-Bombesin binding assay; conditions: Rat whole brain
[26] = target: Neurokinin NK3 receptor (Human) (Homo sapiens, UniProt P29371); assay: [125I]-Neurokinin B; type: binding; conditions: Human recombinant
CRF1 receptor (Human) = target: T1, CRF1 receptor (Human) (Homo sapiens, UniProt P34998); assay: [125I]-Corticotropin Releasing Factor; type: binding; conditions: Human recombinant
T1 sequence (P34998 24-415): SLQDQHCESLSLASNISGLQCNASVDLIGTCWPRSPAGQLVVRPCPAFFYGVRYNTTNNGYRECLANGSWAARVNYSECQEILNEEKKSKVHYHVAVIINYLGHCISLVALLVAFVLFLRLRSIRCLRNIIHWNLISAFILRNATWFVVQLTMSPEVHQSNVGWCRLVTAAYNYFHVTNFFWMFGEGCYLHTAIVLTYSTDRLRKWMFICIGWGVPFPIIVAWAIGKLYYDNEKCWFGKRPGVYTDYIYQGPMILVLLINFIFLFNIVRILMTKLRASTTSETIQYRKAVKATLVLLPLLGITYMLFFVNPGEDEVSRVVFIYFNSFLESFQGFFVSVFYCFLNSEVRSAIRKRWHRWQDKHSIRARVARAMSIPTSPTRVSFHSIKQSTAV

## Cl.Cl.Clc1ccc(C2CC3CCC2N3)cn1.O (racemic) [(±)-Epibatidine dihydrochloride hydrate]
[1]
  Inhibition by a positive substance (%): 100%

## COc1ccc(CCN(C)CCCC(C#N)(c2cc(OC)c(OC)c(OC)c2)C(C)C)cc1OC.Cl (racemic) [(±)-Methoxyverapamil hydrochloride]
[2]
  Inhibition by a positive control substance (%): 100%

## COc1ccc([C@@H]2Sc3ccccc3N(CCN(C)C)C(=O)[C@@H]2OC(C)=O)cc1.Cl (relative stereo) [(+)-cis-Diltiazem hydrochloride]
[3]
  Inhibition by a positive substance (%): 96.98%

## CCCCCCCCCCCCCCCCOC[C@@H](O)COP(=O)([O-])OCC[N+](C)(C)C [1-O-Palmityl-sn-glycero-3-phosphocholine]
PAF receptor
  Inhibition by a positive substance (%): 100%

## CCCn1c(=O)c2[nH]c(C3CCCC3)nc2n(CCC)c1=O [8-Cyclopentyl-1,3-dipropylxanthine]
[4]
  Inhibition by a positive substance (%): 96.61%

## CC(C)(C)[C@]1(O)CCN2C[C@H]3c4ccccc4CCc4cccc(c43)[C@@H]2C1 [(+)-Butaclamol hydrochloride]
[5]
  Inhibition by a positive substance (%): 94.16%

## Cc1o[nH]c(=O)c1C[C@H](N)C(=O)O [(S)-AMPA]
[6]
  Inhibition by a positive substance (%): 100%

## O=P([O-])([O-])OC1C(O)C(O)C(OP(=O)([O-])[O-])C(OP(=O)([O-])[O-])C1O.[K+].[K+].[K+].[K+].[K+].[K+] [D-myo-Inositol 1,4,5-trisphosphate potassium salt]
IP3 receptor
  Inhibition by a positive substance (%): 100%

## C[C@@H]1C[C@H]2[C@@H]3CCC4=CC(=O)C=C[C@]4(C)[C@@]3(F)[C@@H](O)C[C@]2(C)[C@@]1(O)C(=O)CO [Dexamethasone]
[7]
  Inhibition by a positive substance (%): 99.36%

## CN1C(=O)CN=C(c2ccccc2)c2cc(Cl)ccc21 [Diazepam]
[8]
  Inhibition by a positive substance (%): 100%

## Fc1ccc(C(OCCN2CCN(CCCc3ccccc3)CC2)c2ccc(F)cc2)cc1 [GBR12909 dihydrochloride]
[9]
  Inhibition by a positive control substance (%): 99.41%

## COc1ccc(Cl)cc1C(=O)NCCc1ccc(S(=O)(=O)NC(=O)NC2CCCCC2)cc1 [Glibenclamide]
K Channel KATP
  Inhibition by a positive substance (%): 100%

## CC(=O)O.N=C(N)N/N=C/c1c(Cl)cccc1Cl [Guanabenz acetate salt]
[10]
  Inhibition by a positive substance (%): 100%

## CNC(=O)[C@H]1O[C@@H](n2cnc3c(NCc4cccc(I)c4)ncnc32)[C@H](O)[C@@H]1O [IB-MECA]
[11]
  Inhibition by a positive substance (%): 99.41%

## CC(C(O)c1ccc(O)cc1)N1CCC(Cc2ccccc2)CC1.CC(C(O)c1ccc(O)cc1)N1CCC(Cc2ccccc2)CC1.O=C(O)C(O)C(O)C(=O)O (stereo not drawn) [Ifenprodil tartrate salt]
[12]
  Inhibition by a positive substance (%): 99.68%

## CN(C)CCCN1c2ccccc2CCc2ccccc21 [Imipramine hydrochloride]
[13]
  Inhibition by a positive substance (%): 96.87%

## C=C(C)[C@H]1CN[C@H](C(=O)O)[C@H]1CC(=O)O.O [Kainic acid monohydrate]
[14]
  Inhibition by a positive substance (%): 100%

## O=C(O)C(O)C(O)C(=O)O.O=C(c1ccc(F)cc1)C1CCN(CCn2c(=O)[nH]c3ccccc3c2=O)CC1 [Ketanserin tartrate salt]
Monoamine transporter
  Inhibition by a positive substance (%): 100%

## Ic1ccccc1CN[C@@H]1C2CCN(CC2)[C@@H]1C(c1ccccc1)c1ccccc1 [L-703,606 oxalate salt hydrate]
[15]
  Inhibition by a positive substance (%): 99.87%

## Cl.N[C@@H](CCC(=O)O)C(=O)O [L-Glutamic acid hydrochloride]
[16]
  Inhibition by a positive substance (%): 100%

## CCCCC/C=C\C[C@@H](O)/C=C/C=C/C=C\[C@@H](O)CCCC(=O)O [Leukotriene B4]
Leukotriene B4 receptor
  Inhibition by a positive control substance (%): 92.71%

## CCCCC/C=C\C\C=C/C=C/C=C/[C@@H](SC[C@H](N)C(=O)NCC(=O)O)[C@@H](O)CCCC(=O)O [Leukotriene D4]
Leukotriene D4 receptor
  Inhibition by a positive substance (%): 96.63%

## O=C(O)/C(=C/c1c(C(=O)O)[nH]c2cc(Cl)cc(Cl)c12)c1ccccc1 [MDL105,519]
[17]
  Inhibition by a positive substance (%): 100%

## NCc1cc(=O)[nH]o1 [Muscimol]
[18]
  Inhibition by a positive substance (%): 99.04%

## CS(=O)(=O)O.Oc1ccc2c3c1O[C@H]1c4oc5ccccc5c4C[C@@]4(O)[C@@H](C2)N(CC2CC2)CC[C@]314 [Naltriben methanesulfonate hydrate]
[19]
  Inhibition by a positive substance (%): 100%

## CCOC(=O)C1=C(C)NC(C)=C(C(=O)OC)C1c1cccc([N+](=O)[O-])c1 (stereo not drawn) [Nitrendipine]
[20]
  Inhibition by a positive substance (%): 100%

## COc1cc2nc(N3CCN(C(=O)c4ccco4)CC3)nc(N)c2cc1OC [Prazosin hydrochloride]
α1A-Adrenergic receptor
  Inhibition by a positive substance (%): 100%
α1B-Adrenergic receptor
  Inhibition by a positive substance (%): 100%

## CCCCC[C@H](O)/C=C/[C@H]1[C@H](O)CC(=O)[C@@H]1C/C=C\CCCC(=O)O [Prostaglandin E2]
[21]
  Inhibition by a positive substance (%): 100%

## O=C1C[C@@H]2OCC=C3CN4CC[C@]56c7ccccc7N1[C@H]5[C@H]2[C@H]3C[C@H]46 [Strychnine]
[22]
  Inhibition by a positive substance (%): 98.79%

## C#Cc1ccc(C23OCC(CCC)(CO2)CO3)cc1 [[^3H]-EBOB, [^3H]-ethynylbicycloorthobenzoate]
[23]; read-out: Kd (nmol/L), binding of the radio-labeled ligand, 7 concentrations, GABAA (Picrotoxin site)
  Kd: 4.18 nmol/L

## (+)-MK-801 hydrogen maleate
[24]
  Inhibition by a positive substance (%): 100%

## Apamin (CNCKAPETALCARRCQQH-NH2; disulfide 1-11, 3-15; ends not checked; UniProt P01500 28-45, looked up)
K Channel SkCa
  Inhibition by a positive substance (%): 100%

## Bombesin acetate hydrate
[25]
  Inhibition by a positive control substance (%): 98.81%

## Picrotoxin
[23]; Rat cerebral cortex
  Inhibition by a positive control substance (%): 94.33%
[23]; read-out: IC50 for inhibition of the [3H]-EBOB binding, rat cerebral cortex preparation, 7 concentrations, duplicate
  IC50: 602 nM
[23]; read-out: Ki (mol/L), inhibition of the binding of [3H]-EBOB, GABAA (Picrotoxin site), Ki=IC50/(1+[L/Kd])
  Ki: 313 nM

## Succinyl-[Asp 6, N–Me-Phe 8]-Substance P Fragment 6–11
[26]
  Inhibition by a positive substance (%): 100%

## Urocortin human (DNPSLSIDLTFHLLRTLLELARTQSQRERAEQNRIIFDSV; ends and bridges not checked; UniProt P55089 83-122, looked up)
CRF1 receptor (Human)
  Inhibition by a positive substance (%): 100%

— article PMC8237303 (Heliyon, 2021)
